Patent US7530461B2, “Esters of 5-aminolevulinic acid as photosensitizing agents in photochemotherapy” (PhotoCure ASA, priority 1995, dated 2009)
Entries after “also recorded” stand apart in the source; their conditions may differ.

How the values were obtained:
[1] = tested on: Human transitional cell carcinoma cells (T24); assay: Induced fluorescence in T24 cells in vitro; format: cell-based
Description: Human transitional cell carcinoma cells (T24) were used. ALA and ALA esters were dissolved in growth medium not containing serum. Fluorescence was observed using an excitation wavelength of 410 nm and detecting emission at 640 nm.

[2] = tested on: cervical intraepithelial lesions (CIN); assay: Fluorescence detection of cervical intraepithelial lesions using HAL; format: in vivo, human
Description: This study involved 32 non-pregnant women with histologically proven squamous intraepithelial lesions (CIN).
5 to 20 ml of a cold-cream containing 0.5% (w/w) HAL hydrochloride was applied locally by means of a cervical cap. Random biopsies were performed at time points ranging from 5 min to 7 hours to assess the selective accumulation of HAL, as shown by fluorescence images. Image analysis on frozen tissue sections was carried out using a Zeiss Axiophot image analysis system.
A total of 112 biopsies were obtained from 32 patients. From these biopsies approximately 2000 fluorescence images were produced. […] Immediately after the biopsies were taken, the tissue was quickly frozen in liquid nitrogen and stored at −70° C. prior to use in order to stop any formation/degradation of cellular porphyrins. Tissue sections were prepared in the dark to avoid photobleaching. The frozen tissue blocks were mounted in Tissue Tek embedding compound (BDH) and a series of sections were prepared using a cryostat. Tissue sections were mounted on glass slides and images were recorded with a grey-scale camera. A band pass filter (BP395-440 nm) was used for excitation, while a second band-pass filter was used to record the specific Pp fluorescence.

[3] = tested on: bladder cancer cells from patient urine; assay: Detection of bladder cancer cells in urine; format: cell-based, human; details: 40 μg/ml or 0.15 mM, 4 hours at 37° C., blue light 390-440 nm
Description: Urine of a patient with bladder cancer was centrifuged (1500 rpm for 5 min) and resuspended into cell growth medium containing 10% fetal calf serum and HAL hydrochloride (40 μg/ml or 0.15 mM) for 4 hours at 37° C. in the dark. The cells fluoresced under blue light (390-440 nm) after being incubated with HAL HCl (FIG. 28). […] This was confirmed by cytology.

[4] = tested on: basal cell carcinoma (BCC) lesions and surrounding normal skin; assay: PpIX fluorescence in human BCC and surrounding normal skin by optical-fiber based system; format: in vivo; details: 20% for 4 hours, topical
Description: The PpIX fluorescence in the BCC lesions and surrounding normal skin of human patients was measured in situ by optical-fiber based system after topical application of 20% free ALA and its derivatives for various time intervals.
The PpIX fluorescence ratios between BCC lesions and surrounding normal skin after topical application of ALA or its esters (20% for 4 hours), was examined using methods described in previous examples.

[5] = tested on: bladder carcinoma in situ (CIS) and other bladder tumor lesions; assay: HAL fluorescence detection of bladder lesions vs. white light cystoscopy; format: in vivo, human
Description: Photodynamic detection of bladder carcinoma in situ (CIS) (flat cancer lesions) after exposure to a hexyl aminolevulinate composition (8 mM HAL in PBS: 4.3 mM KH2PO4, 4.3 mM Na2HPO4, 120 mM NaCl, pH 6.0) for one hour was performed and compared to white light cystoscopy in patients with bladder cancer (FIG. 31).
About 50 ml of HAL solution was instilled into the bladder. The solution was allowed to remain in the bladder for one hour. After bladder evacuation, the bladder was inspected by using a cystoscope (Storz D-Light, Karl Storz, Tuttlingen, Germany) and mapped under white light followed by inspection and mapping of all fluorescing lesions using blue light (380-450 nm) (light of wavelength of about 405 nm could have been used as the PpIX absorption spectrum includes a maximum near 405 nm). After mapping of the lesions in white and blue light separately, biopsies and resected tissue were obtained of all lesions and suspicious areas. Finally, one biopsy from normal appearing urothelium (negative in white and blue light) was taken. Tissue material was prepared by the local pathlogist and examined by both local and a central pathologist to verify the diagnosis.
In another study, an HAL composition detected 98% of tumor lesions in patients (regardless of tumor type), whereas use of white light identified only 73% of the lesions. The HAL solution composition and instillation and cystoscopy procedure is described above. The cystoscopy findings were verified by examination (by a pathologist) of 5 random biopsies taken from each patient. There were a total of 143 verified tumors in 45 patients including carcinoma in situ (CIS) and Ta or T1 lesions. HAL cystoscopy was performed in 43 of the patients with a detection rate of 96% (43/45). White light cystoscopy was performed in 33 of the patients with a detection rate of 73% (33/45).

`CCCCCCOC(=O)CCC(=O)CN.Cl` [HAL, n-hexyl 5-aminolevulinate hydrochloride] was tested, and the “maximum fluorescence relative to the maximum induced by aminolevulinic acid” value ([1]; same conditions) was “nearly three times”, the “concentration inducing maximum fluorescence in cells in vitro” value ([1]; serum-free medium, excitation 410 nm, emission 640 nm) was “about 13 mM” and the “fluorescence of cervical lesions after topical application” value ([2]; 0.5% (w/w) HAL hydrochloride cold-cream, hydrochloride) was “excellent fluorescence; also recorded: high and homogenous fluorescence in the lesions”. The “adverse reactions / tolerability” value ([2]; 0.5% cream applied to the cervix, patients, hydrochloride) was “No local or systemic adverse reactions; also recorded: well tolerated”, the “fluorescence after 5 minutes application” value ([2]; 0.5% cream, 5 minutes) was “low” and the “fluorescence throughout the lesion at application times of 30 minutes and longer” value ([2]; 0.5% cream, 30 minutes and longer) was “high and homogenous fluorescence throughout the lesion”. The “selectivity of fluorescence for precancerous lesions” value ([2]; 0.5% cream, cervical biopsies of CIN lesions) was “excellent selectivity for precancerous lesions”, the “selectivity at application time more than three hours” value ([2]; 0.5% cream, more than three hours) was “the selectivity was reduced” and the “selectivity after 1-2 hour application” value ([2]; HAL 0.5% cream, 1-2 hour) was “excellent”. The “fluorescence of urine cells under blue light” value [3] was “only cancer cells fluoresced”, the “PpIX fluorescence ratios between BCC lesions and surrounding normal skin (selectivity) compared with free ALA” value [4] was “more selectively induce PpIX in BCC lesions than free ALA” and the “CIS lesion detection rate as verified by biopsies” value ([5]; 8 mM HAL in PBS, one hour instillation, 218 patients for analysis) was 97%. The “carcinoma in situ lesions identified in patients with CIS lesions only” value ([5]; 13 patients with CIS lesions only, 12/13) was 92%, the “detection rate of HAL cystoscopy (patients)” value ([5]; another study, 43/45) was 96% and the “tumor lesions detected (regardless of tumor type)” value ([5]; another study, 143 verified tumors in 45 patients) was 98%.
